Laboratory results published in ChEMBL document CHEMBL4610049, “Structural modification of the aryl sulfonate ester of cjoc42 for enhanced gankyrin binding and anti-cancer activity” (Bioorg Med Chem Lett, 2020).
The source made the active and inactive calls. The rule behind the calls is not given here.

Key:
[1] = tested on: Hep 3B2; experiment: Antiproliferative activity against human Hep3B cells assessed as reduction in cell viability incubated for 72 hrs by MTT assay; assay type: functional, cell-based
[2] = tested on: HepG2; experiment: Antiproliferative activity against human HepG2 cells assessed as reduction in cell viability incubated for 72 hrs by MTT assay; assay type: functional, cell-based; settings: HepG2, 72 h
[3] = tested on: Hep 3B2; experiment: Antiproliferative activity against human Hep3B cells assessed as reduction in cell viability at 50 uM incubated for 72 hrs by MTT assay relative to control; assay type: functional
[4] = biological target: T1, 26S proteasome non-ATPase regulatory subunit 10 (Homo sapiens) (UniProt O75832); experiment: Binding affinity to gankyrin (unknown origin) assessed as fold increase in change in melting temperature at 300 uM by thermal shift assay relative to control
T1 sequence (whole entry): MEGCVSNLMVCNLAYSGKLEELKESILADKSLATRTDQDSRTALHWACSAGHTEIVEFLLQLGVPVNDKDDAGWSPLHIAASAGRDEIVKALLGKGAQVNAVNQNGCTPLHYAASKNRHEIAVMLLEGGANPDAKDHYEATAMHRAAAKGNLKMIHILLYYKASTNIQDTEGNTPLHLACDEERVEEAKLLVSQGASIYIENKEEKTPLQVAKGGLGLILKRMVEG

[5] = tested on: HepG2; experiment: Antiproliferative activity against human HepG2 cells assessed as reduction in cell viability at 50 uM incubated for 72 hrs by MTT assay relative to control; assay type: functional; settings: HepG2, 72 h

| Structure (SMILES) | IC50 [1] [µM] | IC50 [2] [µM] | Activity [4] | further results |
| --- | --- | --- | --- | --- |
| COC(=O)c1ccc(-n2cc(CCCOS(=O)(=O)c3cccc(F)c3)nn2)cc1 | > 50 | > 50 |  | inhibition at 50 µM [3]: 0%; fold change (FC) [4]: 1.4; inhibition at 50 µM [5]: 0% |
| COC(=O)c1ccc(-n2cc(CCCOS(=O)(=O)c3cccc(OC)c3)nn2)cc1 | 20.9 | 36.9 |  | fold change (FC) [4]: 1.9 |
| COC(=O)c1ccc(-n2cc(CCCOS(=O)(=O)c3ccc(I)cc3)nn2)cc1 | 25.3 | 17.5 |  | fold change (FC) [4]: 1.7 |
| COC(=O)c1ccc(-n2cc(CCCOS(=O)(=O)c3ccc(C(=O)OC)cc3)nn2)cc1 |  |  | Active |  |
| COC(=O)c1ccc(-n2cc(CCCOS(=O)(=O)c3ccc(-c4ccccc4)cc3)nn2)cc1 | 26 | 46.2 |  | fold change (FC) [4]: 2.3 |
| COC(=O)c1ccc(-n2cc(CCCOS(=O)(=O)c3ccc(C#N)cc3)nn2)cc1 |  |  | Active |  |
| CCc1cccc(S(=O)(=O)OCCCc2cn(-c3ccc(C(=O)OC)cc3)nn2)c1 |  |  | inactive |  |
| COC(=O)c1ccc(-n2cc(CCCOS(=O)(=O)c3cccc(Cl)c3)nn2)cc1 |  |  | inactive |  |
| CCc1ccc(S(=O)(=O)OCCCc2cn(-c3ccc(C(=O)OC)cc3)nn2)cc1 |  |  | Active |  |
| COC(=O)c1ccc(-n2cc(CCCOS(=O)(=O)c3cccc(C(=O)OC)c3)nn2)cc1 |  |  | inactive |  |
| CNC(=O)c1ccc(S(=O)(=O)OCCCc2cn(-c3ccc(C(=O)OC)cc3)nn2)cc1 |  |  | inactive |  |
| COC(=O)c1ccc(-n2cc(CCCOS(=O)(=O)c3ccc(C(C)C)cc3)nn2)cc1 |  |  | inactive |  |
| COC(=O)c1ccc(-n2cc(CCCOS(=O)(=O)c3ccc(C)cc3)nn2)cc1 | > 50 | > 50 | Active | inhibition at 50 µM [3]: 0%; inhibition at 50 µM [5]: 0% |
| COC(=O)c1ccc(-n2cc(CCCOS(=O)(=O)c3cccc(C#N)c3)nn2)cc1 |  |  | Active |  |
| COC(=O)c1ccc(-n2cc(CCCOS(=O)(=O)c3ccccc3C)nn2)cc1 | > 50 | > 50 |  | inhibition at 50 µM [3]: 0%; fold change (FC) [4]: 2; inhibition at 50 µM [5]: 0% |
| COC(=O)c1ccc(-n2cc(CCCOS(=O)(=O)c3ccccc3)nn2)cc1 |  |  | inactive |  |
| COC(=O)c1ccc(-n2cc(CCCOS(=O)(=O)c3ccc(OC)cc3)nn2)cc1 |  |  | Active |  |
| COC(=O)c1ccc(-n2cc(CCCOS(=O)(=O)c3cccc(C)c3)nn2)cc1 |  |  | inactive |  |
